Assay results from US6723897B2, “Methods for controlling gibberellin levels” (Monsanto Technology, LLC, priority 1998, dated 2004).

Tests used:
Type in all cases: in vivo, Glycine max
[1] = tested on: constitutively GA-deficient transgenic dwarf soybean line 719; test: Field trial of seed coating application rates, GA-deficient soybean; conditions: for 719 Height, cm, Heavy soil / 719 Height, cm, Light soil / No. 719 Emerged, Heavy soil / No. 719 Emerged, Light soil / No. 719 Not Rescued, Heavy soil / No. 719 Not Rescued, Light soil: seed coating
Procedure: GA3, GA3-3-acetate, GA5, GA9, and GA12 are evaluated in further field trials. […] The objectives of these tests are: 1) to determine if seed coatings, as compared to imbibition, of GA compounds facilitate rescue of constitutively GA-deficient transgenic dwarf soybeans (transgenic lines 719−2 plus 719+17) without causing elongation of wild-type soybeans (line A4922), and 2) to determine the seed treatment rate ranges for each of the selected GA compounds that would provide rescue of constitutively GA-deficient transgenic dwarf soybeans (transgenic lines 719−2 plus 719+17) without causing elongation of wild-type soybeans (line A4922).
Seeds are treated with GA3, GA5, GA9, GA12, and GA3-3-acetate at rates of 0, 0.1, 1, 10, and 100 μg/seed. These GA compounds are applied to the seeds using a Hege 11 seed treater (Hans-Ulrich Hege GmbH & Co., Waldenburg, Germany); 100% acetone is used as the carrier solvent. The amount of liquid introduced into the seed treater is six fluid ounces/100 lbs seed rate. In addition, GA12 is tested at 50 μg/seed. The untreated control (UTC) consisted of dry, untreated seeds. Seeds of constitutively GA-deficient transgenic dwarf soybean line 719 and wild-type A4922 are sown in both light and heavy soil. The planting depth is 0.5 to 1 inch (1.27 to 2.54 cm); watering is via drip irrigation. The experiment is carried out in three repetitions, using 25 seeds/plot (one five foot (152.4 cm) long row) for line 719, and 75 seeds/plot (two eight foot (243.8 cm) rows) for line A4922. Observations included total emergence, number of dwarfs not rescued, uniformity in plant height, average plant height, visual notes, and digital photos.
In all the experiments reported in Tables 17-24, treatments are replicated three times in a randomized block design. Data are analyzed using LSD (least significant difference) 0.05 probability using the PRM 5.0 Statistical Analysis Program (SAS Institute, North Carolina).

[2] = tested on: transgenic line 719 soybean; test: Field trial of seed coatings under soil compaction / different soils, GA-deficient soybean; conditions: for Count (emergence) / Dwarfs (number of dwarfs not rescued) / Dwarfs (number not rescued): Line 719
[3] = tested on: wild-type soybean line A3237; test: Experiment II second greenhouse test, seed imbibition, wild-type soybean; conditions: 0.125 mg/ml; seeds imbibed 6 hours
Procedure: (The compounds are tested in Experiment I at only one concentration, i.e., 0.25 mg/ml). Test tubes contained […] of ethanol solution per tube. Final volumes are made up to 30 ml with deionized water. After shaking, the treatment solutions (15 ml each) are transferred to each of two 50 ml test tubes. […] Twenty seeds are used in each treatment. Dry seed, ethanol/water-imbibed seed (1% ethanol in water, v/v), and water-imbibed seeds are included as controls. Seeds are imbibed for 6 hours in the test solutions, then planted in bread pans containing Metromix 350 (The Scotts Company, Marysville, Ohio), and covered with 0.5″ Metro-mix. Covered pans are transferred to the greenhouse and subirrigated. Illumination is at a light intensity of 300-400 μmolm^−2s^−1 photosynthetic photon flux; 16 hours light/8 hours dark. Subsequent waterings are also through sub-irrigation until the test is terminated three weeks later. Observations included the number of dwarf, intermediate, and tall plants; plant height; uniformity of rescue; and any visual effects. Digital photographs are also taken.

[4] = Heavy soil - loose, target rate 2.0 μg/seed, Table 22
[5] = Heavy soil - loose, target rate 8.0 μg/seed, Table 22
[6] = Light soil - Compacted, target rate 2.0 μg/seed, Table 22
[7] = Light soil - Compacted, target rate 8.0 μg/seed, Table 22
[8] = Light soil - Loose, target rate 2.0 μg/seed, Table 24
[9] = Light soil - Loose, target rate 8.0 μg/seed, Table 24
[10] = Light soil - Loose, target rate 16.0 μg/seed, Table 24
[11] = Light soil - compacted, target rate 2.0 μg/seed, Table 24
[12] = Light soil - compacted, target rate 8.0 μg/seed, Table 24
[13] = Light soil - compacted, target rate 16.0 μg/seed, Table 24

In the case of C=C1C[C@]23C[C@H]1CC[C@H]2[C@@]12CCC[C@@](C)(C(=O)O1)[C@H]2[C@@H]3C(=O)O [GA9], the “719 Height, cm, Heavy soil” value ([1]; 10 μg compound per seed) is reported as 4.0 d-i cm, the “719 Height, cm, Light soil” value ([1]; 10 μg compound per seed) is reported as 5.0 efg cm and the “No. 719 Emerged, Heavy soil” value ([1]; 10 μg compound per seed) is reported as 16.3 b-e. For the same compound, the “No. 719 Emerged, Light soil” value ([1]; 10 μg compound per seed) was 21.7 ab, the “No. 719 Not Rescued, Heavy soil” value ([1]; 10 μg compound per seed) was 0.7 ef and the No. 719 Not Rescued, Light soil ([1]; 10 μg compound per seed) was 0.3. For the same compound, the “719 Height, cm, Heavy soil” value ([1]; 100 μg compound per seed) was 8.3 ab cm, the “719 Height, cm, Light soil” value ([1]; 100 μg compound per seed) was 10.3 cd cm and the “No. 719 Emerged, Heavy soil” value ([1]; 100 μg compound per seed) was 20.3 a-d. The “No. 719 Emerged, Light soil” value ([1]; 100 μg compound per seed) was 19.0 a-e, the “No. 719 Not Rescued, Heavy soil” value ([1]; 100 μg compound per seed) was 0 f and the No. 719 Not Rescued, Light soil ([1]; 100 μg compound per seed) was 0. For the same compound, the “appearance of line 719 seedlings” value ([1]; 0.1 and 1 μg per seed) was “appeared unusually abnormal”, the “% Emergence, Heavy Soil-Loose” value ([2]; 3.1 μg/seed) was 103% and the “% Emergence, Light Soil-Compact” value ([2]; 3.1 μg/seed) was 103%. The “% Rescue, Heavy Soil-Loose” value ([2]; 3.1 μg/seed) was 80%, the “% Rescue, Light Soil-Compact” value ([2]; 3.1 μg/seed) was 91% and the “% Emergence, Heavy Soil-Loose” value ([2]; 4.9 μg/seed) was 91%. The “% Emergence, Light Soil-Compact” value ([2]; 4.9 μg/seed) was 73%, the “% Rescue, Heavy Soil-Loose” value ([2]; 4.9 μg/seed) was 93% and the “% Rescue, Light Soil-Compact” value ([2]; 4.9 μg/seed) was 100%. For the same compound, the “Count (emergence)” value [2, 4] was 42 a, the “Dwarfs (number of dwarfs not rescued)” value [2, 4] was 2.0 cde and the “Count (emergence)” value [2, 5] was 35 abc. The “Dwarfs (number of dwarfs not rescued)” value [2, 5] was 0.7 cde, the “Count (emergence)” value [2, 6] was 38 abc and the “Dwarfs (number of dwarfs not rescued)” value [2, 6] was 0.7 cd. For the same compound, the “Count (emergence)” value [2, 7] was 27 b-f, the “Dwarfs (number of dwarfs not rescued)” value [2, 7] was 0 days and the “Count (emergence)” value [2, 8] was 48.0 a. The “Dwarfs (number not rescued)” value [2, 8] was 2.3 e, the “Count (emergence)” value [2, 9] was 49.0 a and the “Dwarfs (number not rescued)” value [2, 9] was 0 e. The “Count (emergence)” value [2, 10] was 45.0 ab, the “Dwarfs (number not rescued)” value [2, 10] was 0 e and the “Count (emergence)” value [2, 11] was 38.3 abc. The “Dwarfs (number not rescued)” value [2, 11] was 0.7 cd, the “Count (emergence)” value [2, 12] was 27.3 b-f and the Dwarfs (number not rescued) [2, 12] was 0. The “Count (emergence)” value [2, 13] was 29.7 a-f, the Dwarfs (number not rescued) [2, 13] was 0 and the “rank of potential for rescuing GA-deficient dwarf soybeans without decreasing emergence” value ([2]; based on the last two field trials) was “GA9>GA5>GA3-3-acetate>GA3>GA12”. For the same compound, the “best to least selectivity order” value ([2]; emergence under soil compaction, margin of selectivity, rescue without overelongation, Table 22) was “GA9>GA5>GA3-3-acetate>GA3” and the “Significant Visual Observations on Line A3237” value [3] was “Normal height”.
